Assay results reported in paper PMC6332220, “Synthesis, Characterization and Biological Evaluation of Some Quinoxaline Derivatives: A Promising and Potent New Class of Antitumor and Antimicrobial Agents” (Molecules, 2015).
≈ marks a conversion by molar mass, not a printed value.

What was measured:
[1] = test system: MCF-7 (breast adenocarcinoma); test: In vitro cytotoxicity, SRB cell growth assay, MCF-7; conditions: Homo sapiens, MCF7, 48 h, read-out: IC50 (μg/mL) MCF-7
Experimental: (§1) The in vitro cytotoxic activity of the newly synthesized compounds against human breast cell line (MCF7), non-small cell lung cancer NCIH460, CNS cancer SF-268 and WI 38 (normal fibroblast cells) were evaluated using doxorubicin as the reference drug according to the method reported by Skehan et al..
(§2) The newly synthesized compounds were evaluated in vitro against three human cancer cell lines; which are MCF-7 (breast adenocarcinoma), NCI-H460 (non-small cell lung cancer) and SF-268 (CNS cancer), and WI 38 (normal fibroblast cells) were used in this study. MCF-7 was obtained from the European Collection of Cell Cultures (ECACC, Salisbury, UK) but NCI-H460, SF-268 and WI 38 were kindly provided by the National Cancer Institute (NCI, Cairo, Egypt). They grow as monolayer and routinely maintained RPMI-1640 medium supplemented with 5% heat inactivated fetal bovine serum (FBS), 2 mM glutamine and antibiotics (penicillin 100 U/mL, streptomycin 100 µg/mL), at 37 °C in a humidified atmosphere containing 5% CO2. Exponentially growing cells were obtained by plating 1.5 × 10^5 cells/mL for MCF-7 and SF-268, and 0.75 × 10^4 cells/mL for NCI-H460 followed by 24 h of incubation. The effect of the vehicle solvent (DMSO) on the growth of these cell lines was evaluated in all experiments by exposing untreated control cells to the maximum concentration (0.5%) of DMSO used in each assay.
(§3) The effect of compounds on the in vitro growth of human tumor cell lines were evaluated according to the procedure adopted by the National Cancer Institute ([…]) in the “In vitro Anticancer Drug Discovery Screen” that uses the protein-binding dye sulforhodamine B (SRB) to assess cell growth. In the assay protocol, all cells were incubated at 37 °C under humidified atmosphere containing 5% CO2. Briefly, exponentially cells growing in 96-well plates were then exposed for 48 h to five serial concentrations of each compound, starting from a maximum concentration of 150 μg/mL. Following this exposure period adherent cells were fixed, washed and stained. The bound stain was solubilized and the absorbance was measured at 492 nm in a plate reader (Bio-Tek Instruments Inc., Power wave XS, Winston, NC, USA). For each test compound and cell line, a dose response curve was obtained and the inhibitory concentration of 50% (IC50), corresponding to the concentration of the compounds that inhibited 50% of the net cell growth was calculated as described elsewhere. Doxorubicin was used as a positive control and tested in the same manner.

[2] = test system: NCI-H460 (non-small cell lung cancer); test: In vitro cytotoxicity, SRB cell growth assay, NCI-H460; conditions: Homo sapiens, NCI-H460, 48 h, read-out: IC50 (μg/mL) NCI-H460
Experimental: as §1, §2, §3

SF-268 (CNS cancer) = test: In vitro cytotoxicity, SRB cell growth assay, SF-268; conditions: Homo sapiens, SF-268, 48 h, read-out: IC50 (μg/mL) SF-268
Experimental: as §1, §2, §3

[3] = test system: WI 38 (normal fibroblast cells); test: In vitro cytotoxicity, SRB cell growth assay, normal cells WI 38; assay type: cell-based, human; conditions: 48 h exposure, non-cytotoxic = IC50 >100 μg/mL; for IC50: Homo sapiens, WI-38, 48 h
Experimental: as §1, §2, §3

Bacillus subtilis = test: Disk diffusion, Bacillus subtilis; assay type: cell-based; conditions: Gram positive, 8.0 mm disks, 10 μL
Experimental: (§4) The disk diffusion method was used for determination of the antimicrobial activity using ampicillin, gentamicin and amphotericin B as reference drugs. The results were recorded for each compounds as the average diameter as inhibition zones (IZ) of bacterial or fungal growth around the discs in mm as shown in Table 2.
(§5) Antimicrobial activities were carried out against highly pathogenic strains; three strains of Gram positive bacteria (Bacillus subtilis, Staphylococcus aureus and Streptococcus faecalis), four strains of Gram negative bacteria (Escherichia coli, Neisseria gonorrhoeae, Pseudomonas aeruginosa and Salmonella typhimurium) and three fungi strains (Aspergillus flavus, Aspergillus fumigatus and Candida albicans) isolated from primary agar plates. Antimicrobial activity of the tested samples was determined using a modified Kriby-Bauer disk diffusion method. Briefly, 100 µL of the test bacteria/fungi were grown in 10 mL of fresh media until they reached a count approximately 10^8 cells/mL for bacteria or 10^5 cells/mL for fungi. 100 µL of microbial suspension was spread onto agar plates corresponding to the broth in which they were maintained. The inoculated plates of bacterial strains were incubated at 35–37 °C for 24–48 h, while the inoculated plates of fungal strains such as A. flavus and A. fumigatus were incubated at 25 °C for 48 h and yeast as C. albicans was incubated at 30 °C for 24–48 h.
(§6) The agar disk diffusion (qualitative) method was used in this investigation for determination of the preliminary antibacterial and antifungal activities. The agar used was Mueller-Hinton agar plates that are rigorously tested for composition and pH. Further the depth of the agar in the plate is a factor to be considered in the disk diffusion method.
(§7) Reference drugs: ampicillin was used as a standard antibacterial drug for Gram positive bacteria, gentamicin as a standard antibacterial drug for Gram negative bacteria and amphotericin B as antifungal standard drug.
(§8) Bacterial and fungal strains were spread onto the surface of the agar plates using sterile cotton swabs. For evaluation of antibacterial activities, blank paper disks (Schleicher & Schuell, Alicante, Spain) with a diameter of 8.0 mm were saturated with 10 μL of tested concentration of the stock solutions. Disks were dried and then placed onto inoculated agar plates. The plates of bacterial strains were reincubated at 35–37 °C for 24–48 h, while the plates of fungal strains such as A. flavus and A. fumigatus were reincubated at 25 °C for 48 h and yeast as C. albicans was reincubated at 30 °C for 24–48 h as mentioned above. […] For an accurate analysis, tests were run in triplicate for each strain to avoid any error as described in Table 2.

Staphylococcus aureus = test: Disk diffusion, Staphylococcus aureus; assay type: cell-based; conditions: Gram positive, 8.0 mm disks, 10 μL
Experimental: as §4, §5, §6, §7, §8

Streptococcus faecalis = test: Disk diffusion, Streptococcus faecalis; assay type: cell-based; conditions: Gram positive, 8.0 mm disks, 10 μL
Experimental: as §4, §5, §6, §7, §8

Escherichia coli = test: Disk diffusion, Escherichia coli; assay type: cell-based; conditions: Gram negative, 8.0 mm disks, 10 μL
Experimental: as §4, §5, §6, §7, §8

Neisseria gonorrhoeae = test: Disk diffusion, Neisseria gonorrhoeae; assay type: cell-based; conditions: Gram negative, 8.0 mm disks, 10 μL
Experimental: as §4, §5, §6, §7, §8

Pseudomonas aeruginosa = test: Disk diffusion, Pseudomonas aeruginosa; assay type: cell-based; conditions: Gram negative, 8.0 mm disks, 10 μL
Experimental: as §4, §5, §6, §7, §8

Salmonella typhimurium = test: Disk diffusion, Salmonella typhimurium; assay type: cell-based; conditions: Gram negative, 8.0 mm disks, 10 μL
Experimental: as §4, §5, §6, §7, §8

Aspergillus flavus = test: Disk diffusion, Aspergillus flavus; assay type: cell-based; conditions: Fungi, 8.0 mm disks, 10 μL
Experimental: as §4, §5, §6, §7, §8
(§9) Disk diffusion method for filamentous fungi testing by using approved standard method (M02-A11) developed by the CLSI for evaluating the susceptibilities of filamentous fungi to antifungal agents. Disk diffusion method for yeasts developed by using approved standard method (M44-A2) by the CLSI [44]. Agar-based methods such as disk diffusion can be good alternatives because they are simpler and faster than broth-based methods.

Aspergillus fumigatus = test: Disk diffusion, Aspergillus fumigatus; assay type: cell-based; conditions: Fungi, 8.0 mm disks, 10 μL
Experimental: as §4, §5, §6, §7, §8, §9

Candida albicans = test: Disk diffusion, Candida albicans; assay type: cell-based; conditions: Fungi, 8.0 mm disks, 10 μL
Experimental: as §4, §5, §6, §7, §8, §9

| SMILES | IC50 [1] | IC50 [2] | IC50 (SF-268 (CNS cancer)) | IC50 (μg/mL) WI 38 [3] | Inhibition Zone Diameter (IZ) (mm) Bacillus subtilis (Bacillus subtilis) | Inhibition Zone Diameter (IZ) (mm) Staphylococcus aureus (Staphylococcus aureus) | Inhibition Zone Diameter (IZ) (mm) Streptococcus faecalis (Streptococcus faecalis) | Inhibition Zone Diameter (IZ) (mm) Escherichia coli (Escherichia coli) | Inhibition Zone Diameter (IZ) (mm) Neisseria gonorrhoeae (Neisseria gonorrhoeae) | Inhibition Zone Diameter (IZ) (mm) Pseudomonas aeruginosa (Pseudomonas aeruginosa) | Inhibition Zone Diameter (IZ) (mm) Salmonella typhimurium (Salmonella typhimurium) | Inhibition Zone Diameter (IZ) (mm) Aspergillus flavus (Aspergillus flavus) | Inhibition Zone Diameter (IZ) (mm) Aspergillus fumigatus (Aspergillus fumigatus) | Inhibition Zone Diameter (IZ) (mm) Candida albicans (Candida albicans) | melting point | IC50 [3] |
| --- | --- | --- | --- | --- | --- | --- | --- | --- | --- | --- | --- | --- | --- | --- | --- | --- |
| COc1cccc2c1C(=O)c1c(O)c3c(c(O)c1C2=O)C[C@@](O)(C(=O)CO)C[C@@H]3O[C@H]1C[C@H](N)[C@H](O)[C@H](C)O1 [Doxorubicin, reference compound] | 0.04 ± 0.008 µg/mL (≈ 0.0736 µM) | 0.09 ± 0.008 µg/mL (≈ 0.166 µM) | 0.09 ± 0.007 µg/mL (≈ 0.166 µM) | non-cytotoxic |  |  |  |  |  |  |  |  |  |  |  |  |
| NNc1nc2cc(Br)ccc2n2nnnc12 [Compound 7, 7-Bromo-4-hydrazinyltetrazolo[1,5-a]quinoxaline] | 26.4 ± 2.1 µg/mL (≈ 94.3 µM) | 12.4 ± 3.01 µg/mL (≈ 44.3 µM) | 10.6 ± 2.83 µg/mL (≈ 38 µM) | non-cytotoxic | 11 mm | 10 mm | 11 mm | 10 mm | 10 mm | 10 mm | 9 mm | R (R (IZ = 0 mm)) | R (R (IZ = 0 mm)) | R (R (IZ = 0 mm)) | 237 to 239 °C |  |
| CC1(C)S[C@@H]2[C@H](NC(=O)[C@H](N)c3ccccc3)C(=O)N2[C@H]1C(=O)O [Ampicillin, reference compound] |  |  |  |  | 20 mm | 22 mm | 19 mm |  |  |  |  |  |  |  |  |  |
| Cc1cc(C)n(-c2nc3cc(Br)ccc3nc2Cl)n1 [Compound 6, 6-Bromo-2-chloro-3-(3,5-dimethyl-1H-pyrazol-1-yl)quinoxaline] | 22.4 ± 10.4 µg/mL (≈ 66.4 µM) | 30.5 ± 10.8 µg/mL (≈ 90.3 µM) | 26.5 ± 2.87 µg/mL (≈ 78.5 µM) |  | 11 mm | 9 mm | 11 mm | 11 mm | 11 mm | 9 mm | 8 mm | R (R (IZ = 0 mm)) | R (R (IZ = 0 mm)) | R (R (IZ = 0 mm)) | 81 to 83 °C | 28.2 ± 0.87 µg/mL (≈ 83.7 µM) |
| CC1=NN(c2nc3ccc(Br)cc3nc2N2N=C(C)CC2=O)C(=O)C1 [Compound 17, 6-Bromo-2,3-bis(3-methyl-1H-pyrazol-5(4H)-one)quinoxaline] | 21.23 ± 0.14 µg/mL (≈ 52.9 µM) | 15.81 ± 0.1 µg/mL (≈ 39.4 µM) | 21.3 ± 2.12 µg/mL (≈ 53.2 µM) |  | 7 mm | 8 mm | 10 mm | 11 mm | 6 mm | 8 mm | 5 mm | R (R (IZ = 0 mm)) | R (R (IZ = 0 mm)) | R (R (IZ = 0 mm)) | 152 to 154 °C | 21.4 ± 2.02 µg/mL (≈ 53.3 µM) |
| C[C@@H]1[C@H](O)[C@@H](C)/C=C/C=C/C=C/C=C/C=C/C=C/C=C/[C@H](O[C@@H]2O[C@H](C)[C@@H](O)[C@H](N)[C@@H]2O)C[C@@H]2O[C@](O)(C[C@@H](O)C[C@@H](O)[C@H](O)CC[C@@H](O)C[C@@H](O)CC(=O)O[C@H]1C)C[C@H](O)[C@H]2C(=O)O [Amphotericin B, reference compound] |  |  |  |  |  |  |  |  |  |  |  | 17 mm | 23 mm | 19 mm |  |  |
| Cc1c[nH]nc2c3n[nH]cc(C)n-3c3cc(Br)ccc3n1-2 [Compound 12, 7-Bromo-4,11-dimethyl-2,13-dihydrobis[1,2,4]triazino[4,3-a:3',4'-c]quinoxaline] | 35.2 ± 4.18 µg/mL (≈ 102 µM) | 34 ± 6.05 µg/mL (≈ 98.6 µM) | 22.1 ± 2.81 µg/mL (≈ 64 µM) |  | 18 mm | 19 mm | 18 mm | 17 mm | R (R (IZ = 0 mm)) | 20 mm | 18 mm | R (R (IZ = 0 mm)) | R (R (IZ = 0 mm)) | R (R (IZ = 0 mm)) |  | 23 ± 8.2 µg/mL (≈ 66.5 µM) |
| Cc1cc(C)n(-c2nc3ccc(Br)cc3nc2-n2nc(C)cc2C)n1 [Compound 15, 6-Bromo-2,3-bis(3,5-dimethyl-1H-pyrazol-1-yl)quinoxaline] | 28.4 ± 5.8 µg/mL (≈ 71.5 µM) | 22.7 ± 8.12 µg/mL (≈ 57.2 µM) | 30.2 ± 2.04 µg/mL (≈ 76.1 µM) |  | 10 mm | 9 mm | 9 mm | 10 mm | 9 mm | 9 mm | 10 mm | R (R (IZ = 0 mm)) | R (R (IZ = 0 mm)) | R (R (IZ = 0 mm)) |  | 18.2 ± 4.03 µg/mL (≈ 45.7 µM) |
| CNC(C)C1CCC(N)C(OC2C(N)CC(N)C(OC3OCC(C)(O)C(NC)C3O)C2O)O1 (stereo not drawn) [Gentamicin, reference compound] |  |  |  |  |  |  |  | 20 mm | 18 mm | 17 mm | 23 mm |  |  |  |  |  |
